Source: patent publication US12435059B2, “AMP-activated protein kinase inhibitors and methods of making and using the same” (The Regents of the University of Colorado, priority 2019, dated 2025)

How the values were obtained:
Test in all cases: biochemical
Format in all cases: binding
468 kinases [1] = biological target: 468 kinases (Homo sapiens, UniProt Q08345); settings: DDR1; read-out: % Inhibition @ 100 nM
468 kinases [2] = biological target: 468 kinases (Homo sapiens, UniProt P00519, E255K); settings: ABL1 (E255K)-phosphorylated; read-out: % Inhibition @ 100 nM
468 kinases [3] = biological target: 468 kinases (Homo sapiens, UniProt Q8IVH8); settings: MAP4K3; read-out: % Inhibition @ 100 nM
468 kinases [4] = biological target: 468 kinases (Homo sapiens, UniProt Q13470); settings: TNK1; read-out: % Inhibition @ 100 nM
468 kinases [5] = biological target: 468 kinases (Homo sapiens, UniProt Q9H4A3); settings: WNK1; read-out: % Inhibition @ 100 nM
468 kinases [6] = biological target: 468 kinases (Homo sapiens, UniProt Q13882); settings: BRK; read-out: % Inhibition @ 100 nM
468 kinases [7] = biological target: 468 kinases (Homo sapiens, UniProt Q8IY84); settings: NIMI; read-out: % Inhibition @ 100 nM
468 kinases [8] = biological target: 468 kinases (Homo sapiens, UniProt Q6P2M8); settings: CAMK1B; read-out: % Inhibition @ 100 nM
468 kinases [9] = biological target: 468 kinases (Homo sapiens, UniProt Q9H1R3); settings: MYLK2; read-out: % Inhibition @ 100 nM
468 kinases [10] = biological target: 468 kinases (Homo sapiens, UniProt Q9UEW8); settings: STK39; read-out: % Inhibition @ 100 nM

SMILES	inhibition at 0.1 µM (468 kinases [1]) [%]	inhibition at 0.1 µM (468 kinases [2]) [%]	inhibition at 0.1 µM (468 kinases [3]) [%]	inhibition at 0.1 µM (468 kinases [4]) [%]	inhibition at 0.1 µM (468 kinases [5]) [%]	inhibition at 0.1 µM (468 kinases [6]) [%]	inhibition at 0.1 µM (468 kinases [7]) [%]	inhibition at 0.1 µM (468 kinases [8]) [%]	inhibition at 0.1 µM (468 kinases [9]) [%]	inhibition at 0.1 µM (468 kinases [10]) [%]
CCN(CC)CCNC(=O)c1c(C)[nH]c(/C=C2\C(=O)Nc3ccc(CCO)cc32)c1C [Compound No. 10, (Z)—N-(2-(Diethylamino)ethyl)-5-((5-(2-hydroxyethyl)-2-oxoindolin-3-ylidene)methyl)-2,4-dimethyl-1H-pyrrole-3-carboxamide]	0	35	74	9	0	–	–	–	–	–
CCN(CC)CCNC(=O)c1c(C)[nH]c(/C=C2\C(=O)Nc3ccc(CCC(N)=O)cc32)c1C [Compound No. 16, (Z)-5-((5-(3-Amino-3-oxopropyl)-2-oxoindolin-3-ylidene)methyl)-N-(2-(diethylamino)ethyl)-2,4-dimethyl-1H-pyrrole-3-carboxamide]	–	–	–	–	–	1	67	30	4	12
